1 molecule from patent US20260125357A1, “LACTATE ENHANCING COMPOUNDS AND USES THEREOF” (GLIAPHARM SA, priority 2022, published 2026) can be followed below.

Assay type in all cases: in vivo, mouse
In experiment [1] the test system is GLUT1-DS transgenic mice. Kind of experiment: Lactate and glucose biosensors in GLUT1-DS transgenic mice. The note with it: oral 10 mg/kg, vs vehicle. From the text: Heterozygous transgenic mice on 129/SvJ genetic background in which glucose transporter 1 (GLUT1) has been knocked down were used (GLUT1(+/−)) (Wang et al., 2016, Human Molecular Genetics, 15(7)). GLUT1-deficiency syndrome (GLUT1-DS) is a prototypic hypometabolic diseases caused by the mutation of GLUT1 and decreased levels of glucose and lactate in the brain (Tang et al., 2019, Annals of Clinical and Translational Neurology 6(9)). Mating colonies were composed of wild-type female mice and GLUT1-DS male mice, or GLUT1-DS female mice and wild-type male mice. F1 pups were genotyped after ear punching at weaning using PCR to determine genotype. Mice of 2 to 3 months of age were used.
Cerebral extracellular levels of lactate and glucose were monitored in vivo in GLUT1-DS transgenic male mice and wild-type (WT) male littermates using lactate and glucose biosensors (Pinnacle Technology), according to the manufacturer's instructions. […] After surgery, mice were monitored closely and received analgesic treatment for at least 4 days. After mice had fully recovered from surgery, compounds of the invention or vehicle were administered per os as previously described and cerebral levels of extracellular lactate or glucose were dynamically recorded for 6 hours using lactate or glucose biosensors, respectively. […]

For experiment [2], the system named is mice injected with streptozotocin. Kind of experiment: Morris Water Maze in streptozotocin ICV injection model of Alzheimer's disease. The note with it: 30 mg/kg, 1 Day after training, vs Veh. Here is the method: (§1) Craniotomies are performed on isoflurane-anesthetized mice for injections of Veh or streptozotocin in cerebral ventricles (coordinates: −0.5 mm (to bregma), lateral+/−1.0 mm (to midline), ventral −2.2 mm (to dura)) (Kelliny S. et al., Molecular Neurobiology, 2021). A solution composed of Veh (0.9% NaCl) or streptozotocin (5 mg/kg) prepared in 1 μl artificial cerebrospinal fluid solution (aCSF, 20 mM citrate buffer, pH 4.2) is injected in both cerebral ventricles using Hamilton micro syringe at a constant speed of 100-200 nl/min. After injection, skin of the skull is sutured, and mice is monitored closely and receives analgesic treatment for at least 4 days. After mice had fully recovered from surgery, memory tests including Morris Water Maze (MWM), Inhibitory Avoidance (IA) and Novel Object Recognition (NOR), as described below, are performed. […]
Morris Water Maze (MWM), a well-established spatial and contextual memory test, will be used. […] A number of parameters including the latency to find the platform, time spent around the platform, path efficiency, % time spent in each quadrant is recorded, using automated tracking software (Ethovision). The type of exploration (direct, random, scan of the area) is also recorded. […]

Experiment [3] shares this test system. Kind of experiment: Inhibitory Avoidance in streptozotocin ICV injection model of Alzheimer's disease. The note with it: 1 day after training, vs Veh. Here is the method: as §1
Inhibitory avoidance (IA) test is a well-established memory paradigm in rodents that measures contextual memory associated with a mild electrical footshock in a specific context (the dark compartment of the IA chamber). […] Memory retention was measured at 24 h after training by placing the mouse back into the lit compartment and recording its latency (in seconds) to enter the dark compartment. […]

Consider `COc1cc2ccnc(Nc3ccc(S(C)(=O)=O)cc3)c2cc1OC` [Compound 2, 6,7-dimethoxy-N-(4-methylsulfonylphenyl)isoquinolin-1-amine], for which, in experiment [1], the “extracellular glucose levels in the brain” value was “significantly increases” and the “extracellular lactate levels in the brain” value is “significantly increases extracellular lactate”. The “memory in the Morris Water Maze” value in experiment [2] is “significantly higher”. In addition, the “memory in the Inhibitory Avoidance” value in experiment [3] (10 mg/kg) is given as “significantly higher”. Further, the “memory in the Inhibitory Avoidance” value in experiment [3] (30 mg/kg) is reported as “significantly higher”.
